From PubChem BioAssay AID1053153 (Broad Institute, 2014)

Test system: HepG2 + statin, PCSK9 mRNA qPCR, 24 h
Assay: statin-induced PCSK9 expression modulation – cell-based, HepG2, RT-PCR, atorvastatin or simvastatin, cherry-pick, mechanism study for Trib1 inducer project, late-stage follow-up (AID 1053153)

Row | Compound | fold change
1 | CN1C(=O)c2cc(NC(=O)c3ccc(C(F)(F)F)cc3)ccc2OC[C@@H]2O[C@H](CC(=O)NC3Cc4ccccc4C3)CC[C@@H]21 | 2
2 | CN1C(=O)c2cc(NC(=O)c3ccc(C(F)(F)F)cc3)ccc2OC[C@@H]2O[C@@H](CC(=O)NC3Cc4ccccc4C3)CC[C@@H]21 | 10
